# Source: US20170003277A1 (priority 2015, published 2017)
# Legend:
# Assay type in all cases: cell-based
# [1] = tested on: THP-1 human monocyte cell line; experiment: Pathway enrichment (DAVID) in THP-1 study: Copaxone vs mannitol and Probioglat vs GA; conditions: Copaxone vs mannitol, 6 hours
# [2] = tested on: THP-1 human monocyte cell line; experiment: Luminex secreted cytokines and chemokines from THP-1 cells, 24 hours, Polimunol or Probioglat vs Copaxone (Example 13); conditions: mannitol control
# Description: To evaluate effects of Copaxone at the protein level, and assess the extent to which differences observed at the mRNA level (using micaroarry and qRT-PCR) were further consistent with effects observed at the level of the translated proteins, levels of 42 secreted cytokines and chemokines were measured using Luminex technology, analyzing the supernatant of THP-1 cells (human monocyte cell line) stimulated for 24 hours with Copaxone, FOGA, or mannitol control.
# Measurements were also undertaken at the protein level, in order to assess the biological relevance of the observed gene expression differences. Levels of a panel of secreted cytokines and chemokines were measured via Luminex from THP-1 cells stimulated with branded GA, Polimunol, or Probioglat.
# Cells from the THP-1 human monocyte cell line were incubated with branded GA, FOGA (Polimunol or Probioglat), or vehicle control (mannitol) for 24 hours. This time point was chosen in order to reflect translation of mRNA expression patterns observed in the same study design at 6 hours post stimulation. Supernatants were collected and assayed for the concentration of selected proteins using a Luminex assay. A total of 5 biological replicates per condition were utilized.
# Data (concentrations in pg/mL) were compared using a two-sided t-test with equal variance, and corrected for multiple hypothesis testing using Benjamini-Hochberg correction. […]
# [3] = tested on: THP-1 human monocyte cell line; experiment: Microarray gene expression in THP-1 cells, Polimunol vs Copaxone, two repeats, 6 hours (Example 11)
# [4] = In two prior THP-1 studies (intersection of both prior datasets)
# [5] = Intersection of prior THP-1 studies and current study
substance,measurement,setting,value
glatiramer acetate [Copaxone®],Fold Enrichment: GO: 0003006~reproductive developmental process,[1]; top downregulated genes,6.25
same,Fold Enrichment: GO: 0007275~multicellular organismal development,[1]; top downregulated genes,2.168
same,Fold Enrichment: GO: 0009653~anatomical structure morphogenesis,[1]; top downregulated genes,2.643
same,Fold Enrichment: GO: 0030154~cell differentiation,[1]; top downregulated genes,2.556
same,Fold Enrichment: GO: 0032502~developmental process,[1]; top downregulated genes,1.984
same,Fold Enrichment: GO: 0048513~organ development,[1]; top downregulated genes,2.76
same,Fold Enrichment: GO: 0048731~system development,[1]; top downregulated genes,2.396
same,Fold Enrichment: GO: 0048856~anatomical structure development,[1]; top downregulated genes,2.165
same,Fold Enrichment: GO: 0048869~cellular developmental process,[1]; top downregulated genes,2.411
same,Fold Enrichment: G0: 0001568~blood vessel development,[1]; top upregulated genes,3.472
same,Fold Enrichment: G0: 0002819~regulation of adaptive immune response,[1]; top upregulated genes,7.067
same,Fold Enrichment: G0: 0030154~cell differentiation,[1]; top upregulated genes,1.794
same,Fold Enrichment: GO: 0000267~cell fraction,[1]; top upregulated genes,1.993
same,Fold Enrichment: GO: 0001501~skeletal system development,[1]; top upregulated genes,3.144
same,Fold Enrichment: GO: 0001525~angiogenesis,[1]; top upregulated genes,4.224
same,"Fold Enrichment: GO: 0001608~nucleotide receptor activity, G-protein coupled",[1]; top upregulated genes,13.87
same,Fold Enrichment: GO: 0001614~purinergic nucleotide receptor,[1]; top upregulated genes,12.55
same,Fold Enrichment: GO: 001816~cytokine production,[1]; top upregulated genes,7.526
same,Fold Enrichment: GO: 0001871~pattern binding,[1]; top upregulated genes,5.244
same,Fold Enrichment: GO: 0001944~vasculature development,[1]; top upregulated genes,3.428
same,Fold Enrichment: GO: 0002376~immune system process,[1]; top upregulated genes,2.852
same,Fold Enrichment: GO: 0002682~regulation of immune system process,[1]; top upregulated genes,3.763
same,Fold Enrichment: GO: 0002683~negative regulation of immune,[1]; top upregulated genes,5.682
same,Fold Enrichment: GO: 0002684~positive regulation of immune system process,[1]; top upregulated genes,4.025
same,Fold Enrichment: GO: 0002694~regulation of leukocyte activation,[1]; top upregulated genes,4.14
same,Fold Enrichment: GO: 0002697~regulation of immune effector process,[1]; top upregulated genes,6.009
same,Fold Enrichment: GO: 0002698~negative regulation of immune effector process,[1]; top upregulated genes,15.05
same,Fold Enrichment: GO: 0002698~positive regulation of response to external stimulus,[1]; top upregulated genes,6.536
same,Fold Enrichment: GO: 0002703~regulation of leukocyte mediated immunity,[1]; top upregulated genes,7.43
same,Fold Enrichment: GO: 0002822~regulation of adaptive immune response based on somatic recombination of immune receptors built from immunoglobulin superfamily domains,[1]; top upregulated genes,7.244
same,Fold Enrichment: GO: 0004222~metalloendopeptidase activity,[1]; top upregulated genes,6.148
same,Fold Enrichment: GO: 0004871~signal transducer activity,[1]; top upregulated genes,2.537
same,Fold Enrichment: GO: 0004872~receptor activity,[1]; top upregulated genes,2.976
same,Fold Enrichment: GO: 0004888~transmembrane receptor activity,[1]; top upregulated genes,3.768
same,Fold Enrichment: GO: 0004930~G-protein coupled receptor activity,[1]; top upregulated genes,4.293
same,Fold Enrichment: GO: 0005576~extracellular region,[1]; top upregulated genes,2.824
same,Fold Enrichment: GO: 0005578~proteinaceous extracellular matrix,[1]; top upregulated genes,5.31
same,Fold Enrichment: GO: 0005615~extracellular space,[1]; top upregulated genes,3.371
same,Fold Enrichment: GO: 0005624~membrane fraction,[1]; top upregulated genes,2.128
same,Fold Enrichment: GO: 0005626~insoluble friction,[1]; top upregulated genes,2.12
same,Fold Enrichment: GO: 0005886~plasma membrane,[1]; top upregulated genes,2.42
same,Fold Enrichment: GO: 0005887~integral to plasma membrane,[1]; top upregulated genes,3.25
same,Fold Enrichment: GO: 0006928~cell motion,[1]; top upregulated genes,2.469
same,Fold Enrichment: GO: 0006935~chemotaxis,[1]; top upregulated genes,4.651
same,Fold Enrichment: GO: 0006950~response to stress,[1]; top upregulated genes,1.897
same,Fold Enrichment: GO: 0006952~defense response,[1]; top upregulated genes,3.418
same,Fold Enrichment: GO: 0006954~inflammatory response,[1]; top upregulated genes,4.475
same,Fold Enrichment: GO: 0006955~immune response,[1]; top upregulated genes,3.57
same,Fold Enrichment: GO: 0007155~cell adhesion,[1]; top upregulated genes,2.948
same,Fold Enrichment: GO: 0007165~signal transduction,[1]; top upregulated genes,1.567
same,Fold Enrichment: GO: 0007166~cell surface receptor linked signal transduction,[1]; top upregulated genes,2.246
same,Fold Enrichment: GO: 0007186~G-protein coupled receptor protein signaling pathway,[1]; top upregulated genes,2.726
same,Fold Enrichment: GO: 0007275~multicellular organismal development,[1]; top upregulated genes,1.742
same,Fold Enrichment: GO: 0007610~behavior,[1]; top upregulated genes,2.76
same,Fold Enrichment: GO: 0007626~locomotory behavior,[1]; top upregulated genes,4.081
same,Fold Enrichment: GO: 0009605~response to external stimulus,[1]; top upregulated genes,3.127
same,Fold Enrichment: GO: 0009607~response to biotic stimulus,[1]; top upregulated genes,3.376
same,Fold Enrichment: GO: 0009611~response to wounding,[1]; top upregulated genes,4.097
same,Fold Enrichment: GO: 0009617~response to bacterium,[1]; top upregulated genes,4.268
same,Fold Enrichment: GO: 0009897~external side of plasma membrane,[1]; top upregulated genes,6.497
same,Fold Enrichment: GO: 0009986~cell surface,[1]; top upregulated genes,4.067
same,Fold Enrichment: GO: 0010033~response to organic substance,[1]; top upregulated genes,2.03
same,Fold Enrichment: GO: 0016020~membrane,[1]; top upregulated genes,1.538
same,Fold Enrichment: GO: 0016021~integral to membrane,[1]; top upregulated genes,1.676
same,Fold Enrichment: GO: 0016477~cell migration,[1]; top upregulated genes,3.203
same,Fold Enrichment: GO: 0016502~nucleotide receptor activity,[1]; top upregulated genes,12.55
same,Fold Enrichment: GO: 0019955~cytokine binding,[1]; top upregulated genes,6.971
same,Fold Enrichment: GO: 0022610~biological adhesion,[1]; top upregulated genes,2.94
same,Fold Enrichment: GO: 0030247~polysaccharide binding,[1]; top upregulated genes,5.244
same,Fold Enrichment: GO: 0030574~collagen cataboltc process,[1]; top upregulated genes,20.7
same,Fold Enrichment: GO: 0031012~extracellular matrix,[1]; top upregulated genes,5.017
same,Fold Enrichment: GO: 0031224~intrinsic to membrane,[1]; top upregulated genes,1.684
same,Fold Enrichment: GO: 0031226~intrinsic to plasma membrane,[1]; top upregulated genes,3.268
same,Fold Enrichment: GO: 0031347~regulation of defense response,[1]; top upregulated genes,5.519
same,Fold Enrichment: GO: 0031349~positive regulation of defense response,[1]; top upregulated genes,6.758
same,Fold Enrichment: GO: 0031960~response to corticosteroid stimulus,[1]; top upregulated genes,6.623
same,Fold Enrichment: GO: 0032101~regulation of response to external stimulus,[1]; top upregulated genes,6.288
same,Fold Enrichment: GO: 0032496~response to lipopolysaccharide,[1]; top upregulated genes,5.682
same,Fold Enrichment: GO: 0032502~developmental process,[1]; top upregulated genes,1.643
same,Fold Enrichment: GO: 0032879~regulation of localization,[1]; top upregulated genes,2.359
same,Fold Enrichment: GO: 0040011~locomotion,[1]; top upregulated genes,3.21
same,Fold Enrichment: GO: 0042221~response to chemical stimulus,[1]; top upregulated genes,1.879
same,Fold Enrichment: GO: 0042330~taxis,[1]; top upregulated genes,4.651
same,Fold Enrichment: GO: 0044243~multicellular organismal catabolic process,[1]; top upregulated genes,20.7
same,Fold Enrichment: GO: 0044421~extracellular region part,[1]; top upregulated genes,3.61
same,Fold Enrichment: GO: 0044425~membrane part,[1]; top upregulated genes,1.539
same,Fold Enrichment: GO: 0044459~plasma membrane part,[1]; top upregulated genes,2.404
same,"Fold Enrichment: GO: 0045028~purinergic nudeotide receptor activity, G-protein coupled",[1]; top upregulated genes,13.87
same,Fold Enrichment: GO: 0045595~regulation of cell differentiation,[1]; top upregulated genes,2.517
same,Fold Enrichment: GO: 0046903~secretion,[1]; top upregulated genes,3.164
same,Fold Enrichment: GO: 0048513~organ development,[1]; top upregulated genes,1.846
same,Fold Enrichment: GO: 0048514~blood vessel morphogenesis,[1]; top upregulated genes,3.398
same,Fold Enrichment: GO: 0048518~positive regulation of biological process,[1]; top upregulated genes,1.559
same,Fold Enrichment: GO: 0048519~negative regulation of biological process,[1]; top upregulated genes,1.629
same,Fold Enrichment: GO: 0048545~response to steroid hormone stimulus,[1]; top upregulated genes,4.216
same,Fold Enrichment: GO: 0048583~regulation of response to stimulus,[1]; top upregulated genes,3.613
same,Fold Enrichment: GO: 0048584~positive regulation of response to stimulus,[1]; top upregulated genes,3.79
same,Fold Enrichment: GO: 0048731~system development,[1]; top upregulated genes,1.918
same,Fold Enrichment: GO: 0048856~anatomical structure development,[1]; top upregulated genes,1.792
same,Fold Enrichment: GO: 0048869~cellular developments process,[1]; top upregulated genes,1.736
same,Fold Enrichment: GO: 0048870~cell motility,[1]; top upregulated genes,2.99
same,Fold Enrichment: GO: 0050727~regulation of inflammatory response,[1]; top upregulated genes,8.87
same,Fold Enrichment: GO: 0050729~positive regulation of inflammatory response,[1]; top upregulated genes,11.5
same,Fold Enrichment: GO: 0050776~regulation of immune response,[1]; top upregulated genes,4.293
same,Fold Enrichment: GO: 0050793~regulation of developmental process,[1]; top upregulated genes,3.161
same,Fold Enrichment: GO: 0050864~regulation of B cell activation,[1]; top upregulated genes,8.565
same,Fold Enrichment: GO: 0050865~regulation of cell activation,[1]; top upregulated genes,4.296
same,Fold Enrichment: GO: 0050867~positive regulation of cell activation,[1]; top upregulated genes,4.664
same,Fold Enrichment: GO: 0050896~response to stimulus,[1]; top upregulated genes,1.852
same,Fold Enrichment: GO: 0051239~regulation of multicellular organismal process,[1]; top upregulated genes,2.792
same,Fold Enrichment: GO: 0051241~negative regulation of multicellular organismal,[1]; top upregulated genes,4.902
same,Fold Enrichment: GO: 0051270~regulation of cell motion,[1]; top upregulated genes,3.643
same,Fold Enrichment: GO: 0051384~response to glucocorticoid stimulus,[1]; top upregulated genes,7.046
same,Fold Enrichment: GO: 0051674~localization of cell,[1]; top upregulated genes,2.99
same,Fold Enrichment: GO: 0051704~multi-organism process,[1]; top upregulated genes,2.223
same,Fold Enrichment: GO: 0051707~response to other organism,[1]; top upregulated genes,4.426
same,Fold Enrichment: GO: 0060089~molecular transducer activity,[1]; top upregulated genes,2.537
same,Fold Enrichment: GO: 0065007~biological regulation,[1]; top upregulated genes,1.236
same,Fold Enrichment: GO: 0065008~regulation of biological quality,[1]; top upregulated genes,2.067
same,Fold Enrichment: GO: 0080134~regulation of response to stress,[1]; top upregulated genes,3.7
same,Fold Enrichment: GO: 00322501~multicellular organismal process,[1]; top upregulated genes,1.77
same,Fold Enrichment: GO: 00550878~regulation of body fluid levels,[1]; top upregulated genes,4.87
same,Fold Enrichment: hsa04060:Cytokine-cytokine receptor interaction,[1]; top upregulated genes,3.911
same,CCL2 secreted level relative to control,[2],not modulated
same,Probesets significantly modulated by Copaxone relative to mannitol,[3]; 6 hours,"12,115"
same,IL1ORA expression relative to mannitol,[3]; FDR p<1.7e-21,significantly upregulated
same,"Probesets downregulated by Copaxone versus mannitol with FC ≦ −1.5, number",[3]; In current study,28
same,"Probesets upregulated by Copaxone versus mannitol with FC ≧ 1.5, number",[3]; In current study,156
same,"Probesets downregulated by Copaxone versus mannitol with FC ≦ −1.5, number",[3]; [4],15
same,"Probesets upregulated by Copaxone versus mannitol with FC ≧ 1.5, number",[3]; [4],149
same,"Probesets downregulated by Copaxone versus mannitol with FC ≦ −1.5, number",[3]; [5],9
same,"Probesets upregulated by Copaxone versus mannitol with FC ≧ 1.5, number",[3]; [5],94
same,IL1RN expression relative to mannitol,"[3]; all 3 present probesets: FDR p values<6.2e-21, 2.6e-17, 8.0e-14",strongly upregulated
same,IL10 expression relative to mannitol,[3]; single probeset not present,not upregulated significantly
same,Significant probesets in pairwise comparisons between three Copaxone lots,[3]; two comparisons / third comparison (adjusted p value 0.044),zero and single
same,Probesets significantly downregulated by Copaxone,"[3]; vs mannitol, 6 hours",6819
same,Probesets significantly upregulated by Copaxone,"[3]; vs mannitol, 6 hours",5296
